Numbers after ± are expanded uncertainties.
Test: xn = mol fraction of the nth substance listed
Details: 100 kPa, Liquid; for mass density: Vibrating tube method; for viscosity: Falling or rolling sphere viscometry

CCCC[N+]1(C)CCCC1.N#CN=C=[N-] [1-butyl-1-methylpyrrolidinium dicyanamide] + O
Details	mass density, 308.15 K [kg/m3]	mass density, 313.15 K [kg/m3]	mass density, 318.15 K [kg/m3]	viscosity, 313.15 K [mPa·s]	viscosity, 318.15 K [mPa·s]
x1 = 0.0729	1001.6 ± 0.2	998.69 ± 0.21	995.65 ± 0.21	2.83 ± 0.45	2.5 ± 0.4
x1 = 0.1652	1006.1 ± 0.22	1002.9 ± 0.22	999.68 ± 0.22	5.143 ± 0.82	4.486 ± 0.72
x1 = 0.2234	1007.7 ± 0.24	1004.59 ± 0.23	1001.37 ± 0.23	6.408 ± 1	5.632 ± 0.9
x1 = 0.3163	1009.37 ± 0.28	1006.34 ± 0.27	1003.18 ± 0.27	8.303 ± 1.3	7.302 ± 1.2
x1 = 0.3548	1009.87 ± 0.3	1006.88 ± 0.3	1003.78 ± 0.3	9 ± 1.4	7.982 ± 1.3
x1 = 0.4198	1010.57 ± 0.35	1007.61 ± 0.34	1004.58 ± 0.34	10.23 ± 1.6	9.005 ± 1.4
x1 = 0.4762	1011.05 ± 0.4	1008.11 ± 0.4	1005.15 ± 0.39	11.23 ± 1.8	9.9 ± 1.6
x1 = 0.5239	1011.4 ± 0.45	1008.46 ± 0.44	1005.54 ± 0.44	12 ± 1.9	10.57 ± 1.7
x1 = 0.6244	1011.99 ± 0.58	1009.1 ± 0.58	1006.25 ± 0.58	13.83 ± 2.2	12.17 ± 1.9
x1 = 0.629	1012.02 ± 0.59	1009.13 ± 0.59	1006.28 ± 0.58	13.91 ± 2.2	12.24 ± 2
x1 = 0.711	1012.42 ± 0.73	1009.55 ± 0.72	1006.71 ± 0.72	15.4 ± 2.5	13.55 ± 2.2
x1 = 0.7413	1012.56 ± 0.78	1009.72 ± 0.78	1006.88 ± 0.77	15.98 ± 2.6	14.02 ± 2.2
x1 = 0.8776	1013.13 ± 1.1	1010.35 ± 1.1	1007.51 ± 1.1	18.78 ± 3	16.46 ± 2.6
x1 = 0.9732	1013.47 ± 1.3	1010.72 ± 1.3	1007.94 ± 1.3	21.05 ± 3.4	18.4 ± 3
x1 = 1	1013.58 ± 1.3	1010.79 ± 1.3	1008 ± 1.3	21.7 ± 3.5	18.95 ± 3
